Results as given in patent US7632850B2, “Arylalkylcarbamate derivatives and production thereof” (Sanofi-aventis, priority 2003, dated 2009).

How the values were obtained:
male OF1 mice = experiment: analgesia test: abdominal stretches induced by PBQ (phenylbenzoquinone) i.p.; format: in vivo
Description: The in vivo activity of the compounds of the invention was evaluated in an analgesia test. Accordingly, intraperitoneal (i.p.) administration of PBQ (phenylbenzoquinone, 2 mg/kg in a 0.9% sodium chloride solution containing 5% of ethanol) to male OF1 mice weighing 25 to 30 g causes abdominal stretches, on average 30 twists or contractions during the period from 5 to 15 minutes after injection. The test compounds are administered orally in suspension in Tween 80 at 0.5%, 60 minutes or 120 minutes before the administration of PBQ.

[1] = target: T1, FAAH (Fatty Acid Amide Hydrolase) (Mus musculus, UniProt O08914); experiment: radioenzymatic assay of anandamide hydrolysis by FAAH (mouse brain membrane homogenates); format: biochemical; settings: concentration inhibiting by 50% the control enzyme activity of FAAH; mouse brain membranes, 10 μM anandamide, 15 minutes at 25° C.
T1 construct: Membrane homogenates are prepared at the time of use by homogenizing the tissues in a Polytron; from tissue; host or cells: mouse brain (minus the cerebellum), membrane homogenate
T1 sequence (O08914 1-579): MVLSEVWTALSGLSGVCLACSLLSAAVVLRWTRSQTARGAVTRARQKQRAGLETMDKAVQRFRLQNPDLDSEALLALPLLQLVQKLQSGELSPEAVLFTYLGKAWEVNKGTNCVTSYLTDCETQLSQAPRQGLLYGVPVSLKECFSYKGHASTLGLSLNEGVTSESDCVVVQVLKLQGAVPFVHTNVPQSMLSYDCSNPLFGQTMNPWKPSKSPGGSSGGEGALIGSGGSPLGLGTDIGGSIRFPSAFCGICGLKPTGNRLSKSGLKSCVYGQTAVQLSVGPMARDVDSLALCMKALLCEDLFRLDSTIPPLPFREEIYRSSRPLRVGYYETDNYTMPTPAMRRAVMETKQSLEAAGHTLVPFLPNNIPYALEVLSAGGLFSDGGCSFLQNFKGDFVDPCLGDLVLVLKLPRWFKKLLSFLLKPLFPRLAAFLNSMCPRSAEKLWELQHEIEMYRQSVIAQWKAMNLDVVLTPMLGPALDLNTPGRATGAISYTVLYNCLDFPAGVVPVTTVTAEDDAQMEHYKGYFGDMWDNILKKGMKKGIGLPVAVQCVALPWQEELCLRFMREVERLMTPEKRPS
Description: The compounds of the invention were subjected to pharmacological tests permitting determination of their inhibitory effect on the enzyme FAAH (Fatty Acid Amide Hydrolase).
Accordingly, mouse brains (minus the cerebellum) are removed and stored at −80° C. Membrane homogenates are prepared at the time of use by homogenizing the tissues in a Polytron in a 10 mM Tris HCl buffer (pH 8.0) containing 150 mM NaCl and 1 mM EDTA. The enzyme reaction is subsequently conducted in 70 μl of buffer, containing bovine serum albumin without fatty acids (1 mg/ml). In succession, the test compounds, at various concentrations, anandamide [ethanolamine 1-^3H] (specific activity: 15-20 Ci/mmol) diluted to 10 μM with cold anandamide, and the membrane preparation (400 μg of frozen tissue per assay) are added. After 15 minutes at 25° C., the enzyme reaction is terminated by adding 140 μl of chloroform/methanol. (2:1). The mixture is stirred for 10 minutes then centrifuged for 15 minutes at 3500 g. An aliquot (30 μl) of the aqueous phase, containing the ethanolamine [1-^3H], is counted by liquid scintillation.

SMILES	melting point [°C]	Reduction in number of stretches (%) (male OF1 mice; (b) 3 mg/kg p.o. at 1 hour)	IC50 [1] [nM]	Reduction in number of stretches (%) (male OF1 mice; (a) 1 mg/kg p.o. at 2 hours)
CNC(=O)COC(=O)NCc1ccc(-c2ccccc2)cc1 [Compound 1, 2-(methylamino)-2-oxoethyl 1,1′-biphenyl-4-ylmethylcarbamate]	189 to 190	–	–	–
CNC(=O)COC(=O)NCc1ccc(-c2ccc(F)cc2)cc1Cl [Compound 9, 2-(methylamino)-2-oxoethyl (3-chloro-4′-fluoro-1,1′-biphenyl-4-yl)methylcarbamate]	170 to 172	–	–	–
CNC(=O)COC(=O)NCc1ccc(-c2ccccn2)cc1 [Compound 81, 2-(methylamino)-2-oxoethyl 4-pyridin-2-ylbenzylcarbamate]	151 to 153	–	–	–
NC(=O)COC(=O)NCc1ccc(-n2cnc(-c3ccccc3)c2)cc1 [Compound 84, 2-amino-2-oxoethyl [4-(4-phenyl-1H-imidazol-1-yl)phenyl]methylcarbamate]	200 to 203	–	–	–
CNC(=O)COC(=O)NCCc1ccc(C(F)(F)F)cc1 [Compound 125, 2-(methylamino)-2-oxoethyl 2-[4-(trifluoromethyl)phenyl]ethylcarbamate]	140 to 142	–	–	–
CNC(=O)COC(=O)NCCc1ccc(-c2ccc(F)cc2)cc1F [Compound 141, 2-(methylamino)-2-oxoethyl 2-(3,4′-difluoro-1,1′biphenyl-4-yl)ethylcarbamate]	164 to 166	–	–	–
NC(=O)COC(=O)NCC1(c2ccc(-c3ccc(F)cc3)cc2)CC1 [Compound 145, 2-amino-2-oxoethyl 1-(4′-fluoro-1,1′-biphenyl-4-yl)cyclopropylmethylcarbamate]	139 to 141	–	–	–
CNC(=O)COC(=O)NCCc1ccc(-c2ccc(Cl)cc2)cc1 [Compound 150, 2-(methylamino)-2-oxoethyl 2-(4′-chloro-1,1′-biphenyl-4-yl)ethylcarbamate]	186 to 188	−57% (b)	63	–
CNC(=O)COC(=O)NCCc1ccc(-c2cccc(C#N)c2)cc1 [Compound 171, 2-(methylamino)-2-oxoethyl 2-(3′-cyano-1,1′-biphenyl-4-yl)ethylcarbamate]	157 to 159	–	108	−51% (a)
CNC(=O)COC(=O)NCCc1ccc(-c2ccc(Cl)cc2Cl)cc1 [Compound 178]	147 to 149	−53% (b)	140	–
CNC(=O)COC(=O)NCCc1ccc(-c2ccc(F)c(Cl)c2)cc1 [Compound 192, 2-(methylamino)-2-oxoethyl 2-(3′-chloro-4′-fluoro-1,1′-biphenyl-4-yl)ethylcarbamate]	178 to 180	–	102	−43% (a)
CNC(=O)COC(=O)NCCc1ccc(Oc2ccccc2)cc1 [Compound 194]	111 to 113	−55% (b)	142	–
CNC(=O)COC(=O)NCCc1ccc(Oc2ccc(Cl)cc2)cc1 [Compound 196, 2-(methylamino)-2-oxoethyl 2-{4-[(4-chlorophenyl)oxy]phenyl}ethylcarbamate]	133 to 135	–	–	–
CNC(=O)COC(=O)NCCc1cccc(Oc2ccccc2)c1 [Compound 197, 2-(methylamino)-2-oxoethyl 2-(3-phenyloxyphenyl)ethylcarbamate]	82 to 84	–	–	–
NC(=O)COC(=O)NCCc1ccc(-n2ccc3cccnc32)cc1 [Compound 224]	110 to 112	–	–	–
